Measurements taken from the supplement of paper PMC13380429.
± gives the standard deviation of the averaged measurements.

How the values were obtained:
Details in all cases: 72 h
Caco-2 [1] = test: cell viability relative to DMSO; higher = less toxic
Calu-3 [2] = test: as above
HepG2 [3] = test: as above
U2OS [4] = test: as above
Vero E6 [5] = test: as above
Caco-2 [6] = test: relative viability EC50 (midpoint between 100% and the lowest measured viability); higher = less toxic
Calu-3 [7] = test: as above
HepG2 [8] = test: as above
U2OS [9] = test: as above
Vero E6 [10] = test: as above
Caco-2 [11] = test: drug sensitivity score (DSS) for viability; higher = more toxic; extreme values may be limits of the assay
Calu-3 [12] = test: as above
HepG2 [13] = test: as above
U2OS [14] = test: as above
Vero E6 [15] = test: as above

| Structure (SMILES) | cell viability (Caco-2 [1]; 1 nM) | cell viability (Caco-2 [1]; 10 nM) | cell viability (Caco-2 [1]; 100 nM) | cell viability (Caco-2 [1]; 1000 nM) | cell viability (Caco-2 [1]; 10000 nM) | cell viability (Calu-3 [2]; 1 nM) | cell viability (Calu-3 [2]; 10 nM) | cell viability (Calu-3 [2]; 100 nM) | cell viability (Calu-3 [2]; 1000 nM) | cell viability (Calu-3 [2]; 10000 nM) | cell viability (HepG2 [3]; 1 nM) | cell viability (HepG2 [3]; 10 nM) | cell viability (HepG2 [3]; 100 nM) | cell viability (HepG2 [3]; 1000 nM) | cell viability (HepG2 [3]; 10000 nM) | cell viability (U2OS [4]; 1 nM) | cell viability (U2OS [4]; 10 nM) | cell viability (U2OS [4]; 100 nM) | cell viability (U2OS [4]; 1000 nM) | cell viability (U2OS [4]; 10000 nM) | cell viability (Vero E6 [5]; 1 nM) | cell viability (Vero E6 [5]; 10 nM) | cell viability (Vero E6 [5]; 100 nM) | cell viability (Vero E6 [5]; 1000 nM) | cell viability (Vero E6 [5]; 10000 nM) | relative viability EC50 (Caco-2 [6]) | relative viability EC50 (Calu-3 [7]) | relative viability EC50 (HepG2 [8]) | relative viability EC50 (U2OS [9]) | relative viability EC50 (Vero E6 [10]) | drug sensitivity score (Caco-2 [11]) | drug sensitivity score (Calu-3 [12]) | drug sensitivity score (HepG2 [13]) | drug sensitivity score (U2OS [14]) | drug sensitivity score (Vero E6 [15]) |
| --- | --- | --- | --- | --- | --- | --- | --- | --- | --- | --- | --- | --- | --- | --- | --- | --- | --- | --- | --- | --- | --- | --- | --- | --- | --- | --- | --- | --- | --- | --- | --- | --- | --- | --- | --- |
| Cc1ccc(-c2cc(C(F)(F)F)nn2-c2ccc(S(N)(=O)=O)cc2)cc1 [celecoxib] | 99.1% | 79.8% | 105% | 90.6% | 103% | 99.4% | 100% | 98.2% | 101% | 114% | 115% | 98.4% | 99.3% | 100% | 95.1% | 92.4% | 99.6% | 92.4% | 97.7% | 98.4% | 101% | 85.4% | 102% | 94.1% | 104% | > 10 µM | > 10 µM | > 10 µM | > 10 µM | > 10 µM | 0 | 0 | 0 | 0 | 0 |
| C[C@@H](CN)CC(=O)O [3-methyl-GABA] | 85.9% | 94.9% | 84.6% | 101% | 88.8% | 95.5% | 104% | 93.4% | 98.3% | 90.9% | 96.1% | 90.5% | 100% | 92.4% | 99% | 102% | 101% | 99.3% | 103% | 94.5% | 100% | 94.2% | 103% | 92.8% | 101% | > 10 µM | > 10 µM | > 10 µM | > 10 µM | > 10 µM | 0.1 | 0 | 0 | 0 | 0 |
| CN(C(=O)c1ccc(F)cc1C(F)(F)F)C1CCN(c2nnc(-c3ccnn3C)c3ccccc23)CC1 [taladegib] | 96.9% | 92.2% | 87.7% | 106% | 92.8% | 93.1% | 93.7% | 92.8% | 109% | 99.4% | 120% | 113% | 111% | 93.5% | 93.2% | 94.9% | 101% | 93% | 101% | 95.6% | 106% | 99.5% | 102% | 90.9% | 91.4% | > 10 µM | > 10 µM | > 10 µM | > 10 µM | > 10 µM | 0 | 0 | 0 | 0 | 0 |
| COc1cc2c(cc1O)C(CCc1ccc(Cl)cc1)N(C)CC2 (stereo not given) [Ro-04-5595] | 102% | 97.2% | 94.4% | 100% | 102% | 93% | 94.6% | 102% | 96.6% | 92.1% | 103% | 101% | 102% | 99% | 80.1% | 100% | 96.2% | 95.8% | 95.1% | 97.9% | 106% | 108% | 101% | 102% | 90.1% | > 10 µM | > 10 µM | > 10 µM | > 10 µM | > 10 µM | 0 | 0 | 0.7 | 0 | 0 |
| O=C1c2c(O)cc(O)cc2O[C@H](c2ccc(O)c(O)c2)[C@H]1O [taxifolin] | 91.5% | 106% | 105% | 104% | 96% | 101% | 110% | 90.1% | 102% | 99.5% | 101% | 94.4% | 98.5% | 100% | 97.5% | 95.2% | 96.5% | 92.9% | 96.2% | 89.9% | 94.4% | 99.4% | 94.2% | 97.6% | 104% | > 10 µM | > 10 µM | > 10 µM | > 10 µM | > 10 µM | 0 | 0 | 0 | 0 | 0 |
| O=C(NC1CCOCC1)c1ccc(-c2cc(-c3c[nH]nc3-c3ccccn3)ccn2)cc1 | 91% | 97.2% | 100% | 95.7% | 93.9% | 101% | 120% | 103% | 99.6% | 108% | 96.2% | 99.9% | 94.8% | 104% | 93.8% | 98.2% | 98.4% | 100% | 94.4% | 92.2% | 93.4% | 103% | 98.8% | 107% | 102% | > 10 µM | > 10 µM | > 10 µM | > 10 µM | > 10 µM | 0 | 0 | 0 | 0 | 0 |
| CCCCC[C@H](O)/C=C/[C@H]1[C@H](O)CC(=O)[C@@H]1CCCCCCC(=O)O [alprostadil] | 96.8% | 99% | 96.7% | 98.6% | 97.8% | 99% | 105% | 88.2% | 98.7% | 98.1% | 91.4% | 101% | 98.6% | 99.4% | 90.5% | 104% | 102% | 100% | 96.7% | 98.7% | 101% | 101% | 98.7% | 101% | 96.1% | > 10 µM | > 10 µM | > 10 µM | > 10 µM | > 10 µM | 0 | 0 | 0 | 0 | 0 |
| CC[C@H]1[C@@H](O)[C@@H]2[C@H](CC[C@]3(C)[C@@H]([C@H](C)CCC(=O)O)CC[C@@H]23)[C@@]2(C)CC[C@@H](O)C[C@@H]12 [obeticholic-acid] | 98.7 ± 5.8% | 104 ± 4.4% | 95 ± 8.5% | 94.8 ± 1.6% | 95.5 ± 1.6% | 106 ± 6.7% | 100 ± 2.4% | 105.9 ± 0.57% | 97.5 ± 6.6% | 98.2 ± 7.2% | 100 ± 4.6% | 102 ± 17% | 95.5 ± 8.1% | 103 ± 3.2% | 104.8 ± 0.14% | 102% | 104% | 96.1% | 104% | 99.2% | 109 ± 20% | 94.8 ± 3.3% | 99.8 ± 12% | 97.3 ± 0.57% | 103 ± 7.1% | > 10 µM | > 10 µM | > 10 µM | > 10 µM | > 10 µM | 0.25 ± 0.35 | 0 | 0 | 0 | 0 |
| Oc1cc2c(cc1O)[C@H](Cc1cccc3ccccc13)NCC2 [CKD-712] | 88.6% | 94.2% | 105% | 98.4% | 92.4% | 105% | 95% | 108% | 105% | 102% | 106% | 101% | 97.9% | 99.7% | 84.8% | 101% | 93.8% | 98.6% | 112% | 96.6% | 102% | 100% | 100% | 99% | 95.7% | > 10 µM | > 10 µM | > 10 µM | > 10 µM | > 10 µM | 0 | 0 | 0.3 | 0 | 0 |
| Cc1nccc2[nH]c(=O)ccc12 [medorinone] | 104% | 102% | 102% | 93.9% | 97.8% | 113% | 102% | 91% | 98.8% | 96.3% | 112% | 99.5% | 102% | 96.8% | 109% | 97.9% | 100% | 97.4% | 99.7% | 97.8% | 102% | 101% | 97% | 97.1% | 98.5% | > 10 µM | > 10 µM | > 10 µM | > 10 µM | > 10 µM | 0 | 0 | 0 | 0 | 0 |
| NC(=O)OCC(COC(N)=O)c1ccccc1 [felbamate] | 92.9% | 97.2% | 95.9% | 99.1% | 97.1% | 91% | 95.8% | 91.5% | 123% | 98.1% | 96.5% | 94.7% | 102% | 106% | 98.5% | 97.8% | 102% | 97.6% | 107% | 104% | 87.8% | 89.8% | 99.6% | 90.3% | 104% | > 10 µM | > 10 µM | > 10 µM | > 10 µM | > 10 µM | 0 | 0 | 0 | 0 | 0 |
| O=C(COc1ccc(Cl)cc1)N1CCN(Cc2ccc3c(c2)OCO3)CC1 [fipexide] | 98.8% | 90.1% | 93.5% | 93.4% | 88.4% | 101% | 93.1% | 103% | 93.5% | 110% | 83.9% | 90.8% | 86.6% | 93.8% | 102% | 102% | 100% | 101% | 95.2% | 96.2% | 97.6% | 99.9% | 101% | 101% | 97.6% | > 10 µM | > 10 µM | > 10 µM | > 10 µM | > 10 µM | 0 | 0 | 0 | 0 | 0 |
| CN[C@H](CC(=O)O)C(=O)O [NMDA] | 101% | 97.5% | 103% | 103% | 88% | 85.4% | 88.6% | 87.7% | 105% | 89.4% | 99.9% | 102% | 110% | 104% | 102% | 95.1% | 96.8% | 91.7% | 102% | 91.5% | 107% | 107% | 104% | 99.5% | 107% | > 10 µM | > 10 µM | > 10 µM | > 10 µM | > 10 µM | 0 | 0 | 0 | 0 | 0 |
| CC(=O)Nc1ccc(Cc2ccc(NC(C)=O)cc2)cc1 [FH1] | 107% | 100% | 104% | 93.7% | 102% | 95.7% | 99.9% | 84.2% | 92.8% | 104% | 99.5% | 104% | 107% | 102% | 96.8% | 98.8% | 96.6% | 99.4% | 104% | 103% | 99.8% | 98.1% | 96.8% | 102% | 98.9% | > 10 µM | > 10 µM | > 10 µM | > 10 µM | > 10 µM | 0 | 0 | 0 | 0 | 0 |
